Reference: patent US7317038B2, “Nerve regeneration promoters containing semaphorin inhibitor as the active ingredient” (Dainippon Sumitomo Pharma Co., Ltd., priority 2000, dated 2008)
Entries after “also recorded” stand apart in the source; their conditions may differ.

Tests used:
[1] = system: sciatic nerves that were crushed; experiment: In vivo nerve regeneration after sciatic nerve crush; conditions: rat; 1 ug/day locally for 14 days; distal areas of 2 mm and 6 mm from the crush site
Method: Male Wister rats were purchased at 7-week-old (CHARLES RIVER JAPAN, INC.) and bred under the light and dark cycles for 12 hours. The rats had free access to solid feedstuff (CLEA Japan, Inc., CE2) and water, and were used in the experiment after about one week of preliminary breeding. Under pentbarbital anesthesia, sciatic nerve of the rat thighs was exposed, clipped for 30 sec with forceps of 5 mm width, and was thus crushed. The crush site was marked with 10-0 nylon thread. SPF-3059-1 was dissolved in PBS at 8.3 ug/ml and was locally administered to the lesion site for 14 consecutive days at a flow rate of 1 ug/day by using an osmotic pressure pump (2ML2, 5 ul/hr, alzet). PBS was administered to the controls. At Day 14 of administration, the sciatic nerves were excised and trimmed at the distal areas from the crush site (the positions of marking) by 2 mm, 6 mm and 10 mm. The incised sciatic nerves were fixed in 2.5% glutaraldehyde/0.1 M phosphate buffer for a day and a night. When they were fixed, nerves were dehydrated by alcohol and were embedded in epoxy resin. […] After the areas of sciatic nerves were measured, the myelinated fiber density was calculated by […].

[2] = target: T1, Sema3A (Mus musculus, UniProt O08665); experiment: Inhibition of collapse activity by contact of Sema3A and the inhibitor (Pre-Mix); format: cell-based; conditions: final concentration 0.05 μg/ml
T1 construct: expressed in transfected cells; host or cells: COS7
T1 sequence (O08665 21-772): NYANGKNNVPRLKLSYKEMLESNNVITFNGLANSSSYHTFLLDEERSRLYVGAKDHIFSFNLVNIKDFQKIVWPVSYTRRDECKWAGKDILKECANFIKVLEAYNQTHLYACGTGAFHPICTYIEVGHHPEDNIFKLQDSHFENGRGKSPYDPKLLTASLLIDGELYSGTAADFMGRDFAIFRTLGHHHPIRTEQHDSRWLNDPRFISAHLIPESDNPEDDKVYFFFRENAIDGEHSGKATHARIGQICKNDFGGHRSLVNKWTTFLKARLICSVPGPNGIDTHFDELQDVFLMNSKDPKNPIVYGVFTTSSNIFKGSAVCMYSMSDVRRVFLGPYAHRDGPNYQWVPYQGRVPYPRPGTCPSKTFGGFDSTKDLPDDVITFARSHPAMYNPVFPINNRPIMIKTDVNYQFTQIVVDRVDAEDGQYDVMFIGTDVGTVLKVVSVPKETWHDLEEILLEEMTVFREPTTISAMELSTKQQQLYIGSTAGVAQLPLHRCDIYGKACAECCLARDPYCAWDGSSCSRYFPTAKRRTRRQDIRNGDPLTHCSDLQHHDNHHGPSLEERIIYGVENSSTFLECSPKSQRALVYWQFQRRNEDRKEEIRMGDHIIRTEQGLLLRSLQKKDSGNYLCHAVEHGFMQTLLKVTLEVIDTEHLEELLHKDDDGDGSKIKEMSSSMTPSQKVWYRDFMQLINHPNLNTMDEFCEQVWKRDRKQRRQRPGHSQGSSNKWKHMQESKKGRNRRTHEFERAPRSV
Excerpt: For example, the inhibitory activity of SPF-3059-1 for the binding of Sema3A to Neuropilin-1 was actually examined by using the alkaline phosphatase-fused Sema3A (=Sema3A-AP) and Neuropilin-1-expressing COS7 cells. SPF-3059-1 is a compound discovered by the present inventors, which inhibits both collapse and neurite outgrowth inhibition induced by semaphorin 3A (Sema3A). […] Further, in order to elucidate the mechanism of the said inhibition, that is, in order to elucidate whether SPF-3059-1 interacts with Sema3A or with its receptor, the comparison was made by measuring collapse activity between (1) the collapse activity which was observed when a sample, to which SPF-3059-1 and Sema3A were mixed in advance at the concentration raising sufficient inhibitory activity (0.25 μg/ml of SPF-3059-1), was added to the culture solution of dorsal root ganglions and (2) the collapse activity which was observed when Sema3A was added to the above-mentioned culture solution after the addition of SPF-3059-1. The final concentration of SPF-3059-1 (0.05 μg/ml) in the culture solution was the same both for (1) and (2). […] From the above considerations, SPF-3059-1 is thought to act by a mechanism in which the binding of Sema3A to the receptor is inhibited by the direct action of SPF-3059-1 on Sema3A. […]

CC(=O)c1c(C)c(C(=O)C2COc3cc(O)c(O)c(C(=O)O)c3C2=O)cc2c(=O)c3c(C(=O)O)c(O)c(O)cc3oc12 (stereo not drawn) [SPF-3059-1]
myelinated fiber density vs PBS-injected group [1]: increased more | inhibition of Sema3A collapse activity, Pre-Mix sample ([2]; Sema3A pre-mixed with 0.25 μg/ml compound): Sema3A activity was inhibited; also recorded: inhibition of collapse activity was observed | inhibition of Sema3A collapse activity, compound and Sema3A independently added [2]: inhibitory activity will not be observed; also recorded: Inhibition of collapse activity was not observed
